From US11723886B2, “Targeting ocular diseases with novel APE1/Ref-1 inhibitors” (Indiana University Research and Technology Corporation, priority 2018, dated 2023)
Entries after “also recorded” stand apart in the source; their conditions may differ.

Columns and labels:
[1] = system: retinal and choroidal endothelial cells; conditions: cited from earlier work
[2] = system: laser-induced choroidal neovascularization; conditions: delivered intravitreally; cited from earlier work
[3] = system: total vessel density and VEGF expression; conditions: stroke in type one diabetes mellitus rats; cited from earlier work
[4] = system: NF-κB and HIF-1α activity; conditions: retinal pigment epithelial cells; concomitant reduction in VEGF expression; cited from earlier work
[5] = system: retinal neovascularization; conditions: delivered intravitreally; cited from earlier work
[6] = system: laser-induced choroidal neovascularization
[7] = system: APE1 repair activity in neurons; conditions: cited from earlier work
[8] = biological target: Ref-1/APE1 endonuclease activity (Homo sapiens, UniProt P27695); conditions: cited from earlier work
Ref-1/APE1 endonuclease activity, sequence (P27695 whole entry): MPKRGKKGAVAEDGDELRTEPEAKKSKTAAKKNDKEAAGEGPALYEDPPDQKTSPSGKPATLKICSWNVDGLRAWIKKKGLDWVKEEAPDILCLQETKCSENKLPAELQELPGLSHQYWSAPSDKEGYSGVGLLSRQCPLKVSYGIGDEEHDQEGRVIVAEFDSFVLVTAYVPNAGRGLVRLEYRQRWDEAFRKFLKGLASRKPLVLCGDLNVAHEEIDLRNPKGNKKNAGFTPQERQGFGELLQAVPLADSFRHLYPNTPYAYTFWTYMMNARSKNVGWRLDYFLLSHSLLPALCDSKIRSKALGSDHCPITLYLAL

CCCCCCCCC/C(=C\C1=C(C)C(=O)C(OC)=C(OC)C1=O)C(=O)O [APX3330]
in vitro angiogenesis (proliferation, migration, tube formation) [1]: block in vitro angiogenesis
neovascularization, L-CNV [2]: reduced neovascularization
total vessel density and VEGF expression [3]: significantly decreased total vessel density and VEGF expression
NF-κB and HIF-1α activity [4]: reduced both NF-κB and HIF-1α activity
neovascularization, VLDLR knockout mouse [5]: reduced neovascularization
intraocular or systemic toxicity in vivo ([6]; i.p. dosing in L-CNV mice): not observed obvious intraocular or systemic toxicity
L-CNV volume ([6]; i.p., 50 mg/kg twice daily, 5 days on/two days off, two weeks): significantly reduced L-CNV volume
APE1 repair activity in neurons [7]: can enhance APE1 repair activity
effect on endonuclease / APE1 activity [8]: does not affect the protein's endonuclease activity; also recorded: do not inhibit APE1 activity
